Results as given in patent US20090298857A1, “Treatment of Neurodegenerative Diseases Through Inhibition of HSP90” (SLOAN-KETTERING INSTITUTE FOR CANCER RESEARCH, priority 2006, published 2009).

Columns and labels:
[1] = system: mutant tau (HT7), Hsp70, p35; experiment: One dose PU-DZ8 in 6 month JNPL3 mice, S1 fraction Western blot (FIG. 9); assay type: in vivo; conditions: one dose 75 mg/kg IP, subcortical S1
Method: JNPL3 female mice 6 months of age were treated IP with the Hsp90 inhibitor PU-DZ8 (75 mg/kg) and sacrificed various times as indicated in FIG. 9. Brains were divided in subcortical and cortical regions and processed using the Greenberg and Davies extraction protocol (77). Sarkosyl soluble fractions (S1) extracted from the subcortical region were analyzed by WB for p35, cdk5, mutant tau (HT7), Hsp90 and Hsp70. Protein bands were normalized to actin and plotted as relative change from untreated mice.

[2] = system: p35 and Tau phosphorylation in cortical region; experiment: One dose PU-DZ8 in hTau mice; assay type: in vivo; conditions: 75 mg/kg i.p.
Method: The majority of Tau pathology in hTau mice is located in the cortical brain region. These mice express six isoforms of non-mutant human Tau, but develop AD-like Tau-pathology. Heat-stable fractions (S1) prepared from cortical homogenates of these mice indicate an age-related accumulation of Tau phosphorylated at putative cdk5 sites. […] Aggregate-free Tau (S1) fractions were prepared from the cortical region of these mice and human Tau levels assessed by immunobloting with an antibody specific for 3-repeat domain Tau (RD3). By analogy to experiments on primary neuronal cultures and WT Tau transfected cells, the Hsp90 inhibitor had no effect on soluble WT Tau expression. […] The monoclonal antibody CP13 is commonly used to detect Tau pathology in both early and more advanced stages of Tau aggregate accumulation (41).

[3] = system: mTau expression and phosphorylation, subcortical brain region; experiment: 30 day Hsp90 inhibitor treatment of JNPL3 mice; assay type: in vivo; conditions: 30 days
Method: To investigate whether modulation of mTau could be sustained over a longer Hsp90 inhibitor-treatment period, without being toxic to mice. JNPL3 mice were subjected for 30 days to these agents. Female JNPL3 mice 6.5 months of age (n=10) were administered i.p. vehicle (n=5) or one of the Hsp90 inhibitors, PU24FC1 (200 mg/kg) or PU-DZ8 (75 mg/kg) (n = 5), on a daily, five-times per week schedule and animals were sacrificed at 8 h following the last administered dose of inhibitor. […] Furthermore, no visible internal organ damage was detected at sacrifice upon gross inspection. Both S1 and P3 fractions extracted from the subcortical brain region of these mice were analyzed for mTau expression and phosphorylation.

[4] = target: P-glycoprotein (Homo sapiens, UniProt P08183); experiment: P-glycoprotein substrate status; assay type: in vitro ADME
P-glycoprotein, sequence (P08183 whole entry): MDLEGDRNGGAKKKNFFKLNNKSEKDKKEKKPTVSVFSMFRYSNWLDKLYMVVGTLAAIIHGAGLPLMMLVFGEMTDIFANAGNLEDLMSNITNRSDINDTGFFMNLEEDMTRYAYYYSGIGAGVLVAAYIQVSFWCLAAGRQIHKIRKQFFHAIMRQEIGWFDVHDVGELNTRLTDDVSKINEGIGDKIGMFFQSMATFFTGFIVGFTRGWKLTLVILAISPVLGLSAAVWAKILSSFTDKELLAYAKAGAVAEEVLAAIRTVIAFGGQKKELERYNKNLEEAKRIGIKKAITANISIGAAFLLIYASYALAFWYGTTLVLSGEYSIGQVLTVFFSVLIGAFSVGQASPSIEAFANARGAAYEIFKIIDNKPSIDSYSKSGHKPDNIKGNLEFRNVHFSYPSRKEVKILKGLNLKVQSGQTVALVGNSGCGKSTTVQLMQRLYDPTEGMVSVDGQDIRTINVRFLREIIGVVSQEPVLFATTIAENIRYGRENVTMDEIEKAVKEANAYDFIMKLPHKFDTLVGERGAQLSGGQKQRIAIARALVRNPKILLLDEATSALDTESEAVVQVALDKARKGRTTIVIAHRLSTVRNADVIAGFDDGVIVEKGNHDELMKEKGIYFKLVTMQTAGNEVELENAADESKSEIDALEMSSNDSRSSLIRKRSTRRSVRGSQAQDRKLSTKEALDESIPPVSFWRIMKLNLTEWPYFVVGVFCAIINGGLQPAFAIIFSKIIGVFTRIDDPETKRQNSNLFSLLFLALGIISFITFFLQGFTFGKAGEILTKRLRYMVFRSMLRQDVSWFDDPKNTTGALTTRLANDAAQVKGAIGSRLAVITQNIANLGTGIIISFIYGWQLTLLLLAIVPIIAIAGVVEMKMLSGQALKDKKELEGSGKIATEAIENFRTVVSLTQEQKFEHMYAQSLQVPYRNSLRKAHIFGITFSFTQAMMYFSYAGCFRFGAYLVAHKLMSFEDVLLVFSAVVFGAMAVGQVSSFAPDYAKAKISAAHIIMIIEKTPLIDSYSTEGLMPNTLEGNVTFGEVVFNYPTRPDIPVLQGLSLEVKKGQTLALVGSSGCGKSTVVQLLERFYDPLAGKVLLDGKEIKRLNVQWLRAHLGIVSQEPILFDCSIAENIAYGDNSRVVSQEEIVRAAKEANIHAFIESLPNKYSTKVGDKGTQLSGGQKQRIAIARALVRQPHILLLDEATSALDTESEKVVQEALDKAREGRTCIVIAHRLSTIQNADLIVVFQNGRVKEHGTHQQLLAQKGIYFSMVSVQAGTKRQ
From the text: Another characteristic which is indicative of the ability to cross the blood brain barrier is protein binding. […] It is not sufficient for a potential neurotherapeutic agent to move across the BBB—it also has to stay in the brain long enough to exert its desired action. This means that it also has to avoid being a substrate for a variety of transport proteins that work to extrude compounds from the brain.

[5] = system: human TauP301L in JNPL3 mouse brain; experiment: One dose PU-DZ8 in JNPL3 mice, soluble (S1) and insoluble (P3) Tau; assay type: in vivo; conditions: 75 mg/kg i.p.
Method: To investigate whether the human TauP301L present in the JNPL3 line of mice is a sensitive target for Hsp90 inhibition, animals were treated with the brain-barrier permeable Hsp90 inhibitor PU-DZ8. This agent is a higher-potency water soluble derivative of PU24FC1 (EC50JNPL3 brain Hsp90=70 nM). One dose of PU-DZ8 (75 mg/kg) was administered intraperitoneally (i.p.) to female mice of 2.5-4 months in age (n=32) and animals were sacrificed in the interval of 0 to 36 h. Both aggregate-free Tau (S1) and insoluble Tau (P3) fractions were prepared from the subcortical and cortical regions of these mice. Human Tau levels were assessed by immunobloting with a human specific anti-Tau antibody (HT-7). […] We next examined in a 4- to 6-month old mouse group (n=15) whether the stability of mTau as present in tau aggregates (P3 fraction) was additionally regulated by Hsp90.
For experiments designed to test the kinetics of mTau and p35 modulation by Hsp90 inhibitors, animals were administered intraperitoneally (i.p.) 75 mg/kg PU-DZ8 in PBS (6% DMSO). Mice were sacrificed by CO2 euthanasia at the indicated times following PU-DZ8 administration. Hemibrains were separated into cortico-limbic (cortex, amygdale and hippocampus) and subcortical (basal ganglia, diencephalon, brain stem and cerebellum) regions, quickly frozen on dry ice and stored at −80° C. and processed. In summary, each brain piece was weighed and homogenized in three volumes of Tris-buffered saline (TBS) containing protease and phosphatase inhibitors (25 mM Tris-HCl, pH 7.4, 150 mM NaCl, 1 mM EDTA, 1 mM EGTA, 5 mM sodium pyrophosphate, 30 mM p-glycerophosphate, 30 mM sodium fluoride. 1 mM phenylmethylsulfonyl fluoride (PMSF)). The homogenates were centrifuged at 27,000 g for 15 min at 4° C. Supernatants were collected as S1 fractions, and the pellets (P1) were re-homogenized in three volumes of salt/sucrose buffer (0.8 M NaCl, 10% sucrose, 10 mM Tris/HCl, pH 7.4, 1 mM EGTA, 1 mM PMSF) and centrifuged as above. The resulting pellets were discarded and the supernatants were incubated with sarkosyl (Sigma, St Louis, Mo., USA; 1% final concentration) for 1 h at 37° C. The sarkosyl mixtures were then centrifuged at 150,000 g for 30 min at 4° C. The supernatants (S2 fraction) were collected, and the pellets (P3) were resuspended in 50 μL 2% SDS in TBS and stored at −80° C. for western blotting. Proteins were analyzed by Western blot.

## CC(C)NCCCn1c(Cc2cc3c(cc2I)OCO3)nc2c(N)nc(F)nc21 [PU-DZ8]
[1]
  chaperone levels (hsp70): hsp70 increase
  mutant protein mtau (HT7): degradation
[2]; 8 h post-administration, P=0.0019
  p35 levels: significant time-dependent reduction
[2]; 8 h post-administration, P=0.0078
  Tau phosphorylation on Ser202 (antibody CP13): alleviation of Tau phosphorylation
[2]; hTau mice, cortical S1
  soluble WT Tau expression: no effect
[3]
  p35 in S1 fraction: p35 reduction
[3]; daily five-times per week i.p., PU24FC1 200 mg/kg, PU-DZ8 75 mg/kg
  toxicity (animal weight, fur appearance, appetite, posture): No toxicity was observed
[3]; hTau P<0.0001, T231 P=0.0034 (FIG. 15)
  Tau expression and phosphorylation in S1 and P3 fractions: significant reduction
[4]
  P-gp substrate: not a substrate of P-pg
[5]
  cdk5 expression: No significant changes
  expressions of Akt and Raf-1: not altered
[5]; 4- to 6-month old mice
  insoluble and hyperphosphorylated Tau (P3 fraction): significant reduction
[5]; 4 h (P=0.0031), maintained up to 36 h
  soluble precursor pool mTau (S1), subcortical brain regions: significant decrease
